Reference: BindingDB's records for doi:10.7270/Q2N014XN (Srmlsc, 2007)
Counter-ions that a name gives are not always drawn.

Molecular target: T1, Diphosphomevalonate decarboxylase (Streptococcus pneumoniae serotype 2 (strain D39 / NCTC 7466), UniProt A0A0H2ZN59)
T1 sequence (A0A0H2ZN59 whole entry): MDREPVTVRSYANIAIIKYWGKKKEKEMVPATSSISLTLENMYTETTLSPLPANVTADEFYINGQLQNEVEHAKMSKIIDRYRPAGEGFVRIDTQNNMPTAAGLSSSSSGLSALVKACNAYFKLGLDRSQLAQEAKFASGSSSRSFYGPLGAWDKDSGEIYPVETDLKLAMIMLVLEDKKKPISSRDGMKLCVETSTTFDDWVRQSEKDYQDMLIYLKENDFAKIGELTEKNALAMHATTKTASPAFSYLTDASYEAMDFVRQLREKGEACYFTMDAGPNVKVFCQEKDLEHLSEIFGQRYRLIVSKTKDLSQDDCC
Assay: diphosphomevalonate decarboxylase inhibition dose curves – biochemical, PK/LDH-coupled NADH fluorescence, hexokinase coupling counter-screen, dose response (AID 550)

[1] = inactive by the depositor's call

SMILES	IC50	IC50 [1]
CCc1c(C)c(C#N)c2nc3ccccc3n2c1Nc1c(C)n(C)n(-c2ccccc2)c1=O [1-[(1,5-dimethyl-3-oxidanylidene-2-phenyl-pyrazol-4-yl)amino]-2-ethyl-3-methyl-pyrido[1,2-a]benzimidazole-4-carbonitrile]	> 10000 µM	–
Cc1nc2cc(NC(=O)NCc3ccco3)ccc2n1C [1-(1,2-dimethyl-5-benzimidazolyl)-3-(2-furanylmethyl)urea]	> 10000 µM	–
CCOc1cc2[nH]c(=O)n(Cc3ccc(C(=O)NCCOC)cc3)c(=O)c2cc1OCC [MLS000120003]	183 µM	–
O=C(CSc1nnnn1Cc1ccccc1)NCCc1ccccc1 [2-(1-Benzyl-1H-tetrazol-5-ylsulfanyl)-N-phenethyl-acetamide]	> 10000 µM	–
CCN(CCNC(=O)C1CCN(c2nnc(-n3cccc3)s2)CC1)c1ccccc1 [MLS000119699]	> 10000 µM	–
CCOC(=O)CSc1cc(=O)n(C)c2cc(Cl)ccc12 [2-[(7-chloro-1-methyl-2-oxo-4-quinolinyl)thio]acetic acid ethyl ester]	> 10000 µM	–
O=C(CN1c2cccc3cccc(c23)S1(=O)=O)N1CCOCC1 [2-[2-(4-morpholinyl)-2-oxoethyl]-2H-naphtho[1,8-cd]isothiazole 1,1-dioxide]	21.9 µM	–
Cn1c(N2CCOCC2)nc(-c2ccccc2)c1-c1ccccc1 [4-(1-methyl-4,5-diphenyl-2-imidazolyl)morpholine]	40.8 µM	–
Cc1occc1C(=O)Nc1nnc(C(F)(F)F)s1 [2-methyl-N-[5-(trifluoromethyl)-1,3,4-thiadiazol-2-yl]-3-furamide]	> 10000 µM	–
Cc1c(NC(=O)CN2c3cccc4cccc(c34)S2(=O)=O)c(=O)n(-c2ccccc2)n1C [MLS000050268]	34.2 µM	–
Cc1ccc(-c2cc(C(F)(F)F)n3ncc(C(=O)NCc4ccco4)c3n2)cc1 [MLS000109298]	–	59.2 µM
O=C(NCc1ccco1)c1ccccc1NS(=O)(=O)c1ccc2c(c1)OCCO2 [2-(2,3-dihydro-1,4-benzodioxin-6-ylsulfonylamino)-N-(2-furanylmethyl)benzamide]	42.4 µM	–
Nc1c(C(=O)NC2CCCC2)sc2nc(-c3cccs3)ccc12 [3-Amino-6-thiophen-2-yl-thieno[2,3-b]pyridine-2-carboxylic acid cyclopentylamide]	172 µM	–
CC(C)CC(=O)NCC(C)NC(=O)CC(C)C (stereo not drawn) [3-methyl-N-[2-(3-methylbutanoylamino)propyl]butanamide]	> 10000 µM	–
Cc1noc(C)c1CSc1nc2ccccc2s1 [4-(1,3-benzothiazol-2-ylsulfanylmethyl)-3,5-dimethyl-1,2-oxazole]	> 10000 µM	–
N#C/C(=C\C1CC=CCC1)c1nc2ccccc2[nH]1 (stereo not drawn) [(E)-2-(1H-benzimidazol-2-yl)-3-cyclohex-3-en-1-ylprop-2-enenitrile]	> 10000 µM	–
O=C1C(Cl)=C(NCC2CCCO2)C(=O)N1Cc1ccccc1 (stereo not drawn) [1-Benzyl-3-chloro-4-[(tetrahydro-furan-2-ylmethyl)-amino]-pyrrole-2,5-dione]	> 10000 µM	–
Cc1cc(O)c(C=Nc2cccc(Cl)c2)c(=O)o1 [(3Z)-3-[(3-chloroanilino)methylene]-6-methyl-pyran-2,4-quinone]	> 10000 µM	–
CCOC(=O)C(Cc1ccccc1)C(=O)Nc1nccs1 (stereo not drawn) [2-benzyl-3-keto-3-(thiazol-2-ylamino)propionic acid ethyl ester]	> 10000 µM	–
Cc1cc(C)c2c(n1)nn1c(N3CCN(c4ccccc4)CC3)cc(C)nc21 [2,8,10-trimethyl-4-(4-phenyl-1-piperazinyl)pyrido[2,3]pyrazolo[2,4-a]pyrimidine]	12.7 µM	–
Cc1cccc2cc(CN(Cc3ccco3)S(=O)(=O)c3ccc4c(c3)OCCO4)c(=O)[nH]c12 [N-(furan-2-ylmethyl)-N-[(8-methyl-2-oxidanylidene-1H-quinolin-3-yl)methyl]-2,3-dihydro-1,4-benzodioxine-6-sulfonamide]	> 10000 µM	–
Cc1cc(N2CCN(C(=O)c3ccco3)CC2)n2nc(-c3cccc(Cl)c3)cc2n1 [MLS000076302]	> 10000 µM	–
COc1ccccc1N1CCN(C(=O)CSc2nnc(NC(=O)c3ccco3)s2)CC1 [Furan-2-carboxylic acid (5-{2-[4-(2-methoxy-phenyl)-piperazin-1-yl]-2-oxo-ethylsulfanyl}-[1,3,4]thiadiazol-2-yl)-amide]	262 µM	–
CCOc1nc(-c2ccccc2)ccc1-c1noc(-c2ccc(OC)c(OC)c2)n1 [3-[5-(3,4-Dimethoxy-phenyl)-[1,2,4]oxadiazol-3-yl]-2-ethoxy-6-phenyl-pyridine]	> 10000 µM	–
COc1ccc(-n2nc(C(=O)NCc3ccco3)c3c4ccccc4n(C)c3c2=O)cc1Cl [3-(3-chloranyl-4-methoxy-phenyl)-N-(furan-2-ylmethyl)-5-methyl-4-oxidanylidene-pyridazino[4,5-b]indole-1-carboxamide]	15.1 µM	–
CC1(C)CC(=O)c2cc(OCC(=O)N3CCN(c4ccccc4F)CC3)ccc2O1 [6-[2-[4-(2-fluorophenyl)-1-piperazinyl]-2-oxoethoxy]-2,2-dimethyl-3,4-dihydro-2H-1-benzopyran-4-one]	37 µM	–
CCN(CC)CCOC(=O)c1ccc(NC=C2C(=O)CC(C)(C)CC2=O)cc1	> 10000 µM	–

SMILES	IC50	IC50 [1]
CCc1nnc2sc(-c3ccc(NC(=O)CSc4ccc(Cl)cc4)cc3)nn12 [2-(4-chlorophenyl)sulfanyl-N-[4-(3-ethyl-[1,2,4]triazolo[3,4-b][1,3,4]thiadiazol-6-yl)phenyl]acetamide]	39.6 µM	–
CCN(CC)CCCN(Cc1cc2cc3c(cc2nc1O)OCCO3)C(=O)Nc1ccccc1 [SMR000004152]	> 10000 µM	–
COCCn1c(C)cc(C(=O)COc2nc3ccccc3nc2C)c1C [1-[1-(2-methoxyethyl)-2,5-dimethyl-3-pyrrolyl]-2-[(3-methyl-2-quinoxalinyl)oxy]ethanone]	3000 µM	–
COc1ccc(C(c2nnnn2CC2CCCO2)N2CCN(c3ccccc3)CC2)cc1 (stereo not drawn) [1-[(4-methoxyphenyl)-[1-(2-oxolanylmethyl)-5-tetrazolyl]methyl]-4-phenylpiperazine]	> 10000 µM	–
COC(=O)c1ccc(Nc2cc(C)nc(-c3ccccc3O)n2)cc1 [4-[[(2E)-2-(6-ketocyclohexa-2,4-dien-1-ylidene)-6-methyl-1H-pyrimidin-4-yl]amino]benzoic acid methyl ester]	18.6 µM	–
Cc1ccc(C2C3=C(CC(C)(C)CC3=O)N(CCN3CCOCC3)C3=C2C(=O)CC(C)(C)C3)cc1	> 10000 µM	–
COc1ccc(-c2nnc(Nc3nc4c(OC)cccc4s3)o2)c(OC)c1 [5-(2,4-dimethoxyphenyl)-N-(4-methoxy-1,3-benzothiazol-2-yl)-1,3,4-oxadiazol-2-amine]	6.62 µM	–
CCOC(=O)c1cc2c(cn1)[nH]c1ccccc12	49.4 µM	–
CCOC(=O)c1sc(Nc2nc3c(OC)cccc3s2)nc1C [SMR000027213]	2.35 µM	–
CCn1nc(-c2cccs2)nc2c(=O)n(C)c(=O)nc1-2 [1-ethyl-6-methyl-3-thiophen-2-yl-pyrimido[5,4-e][1,2,4]triazine-5,7-dione]	–	4.73 µM
COC(=O)c1c(C(=O)OC)c2ccncn2c1Cl [7-Chloro-pyrrolo[1,2-c]pyrimidine-5,6-dicarboxylic acid dimethyl ester]	26.8 µM	–
CCC(=O)Nc1cccc(NC(=O)CSc2nnnn2Cc2ccccc2)c1 [MLS000068150]	> 10000 µM	–
Cc1cc(=O)[nH]c(NC(N)=Nc2cccc3ccccc23)n1	> 10000 µM	–
Cc1ccc(C)c(-c2nc3cc(N)ccc3o2)c1 [2-(2,5-Dimethyl-phenyl)-benzooxazol-5-ylamine]	6.06 µM	–
Cc1ccc(NC(=O)N(CCCN2CCOCC2)Cc2cc3cc4c(cc3[nH]c2=O)OCO4)cc1 [3-(4-methylphenyl)-1-(3-morpholin-4-ylpropyl)-1-[(6-oxidanylidene-5H-[1,3]dioxolo[4,5-g]quinolin-7-yl)methyl]urea]	45.6 µM	–
Cc1ccc2cc3cc(C(=O)N4CCCCCC4)oc3nc2c1 [1-azepanyl-(7-methyl-2-furo[2,3-b]quinolinyl)methanone]	58.1 µM	–
Cc1cc(C)n2nc3nc(N4CCCCC4)nc(-c4ccco4)c3c2n1 [4-(2-furyl)-6,8-dimethyl-2-piperidin-1-ylpyrimido[4',5':3,4]pyrazolo[1,5-a]pyrimidine]	111 µM	–
COc1ccc(N2C(C)=CS/C2=C(/C#N)c2nnc(N3CCOCC3)n2-c2ccccc2)cc1 [(2Z)-2-[3-(4-methoxyphenyl)-4-methyl-1,3-thiazol-2-ylidene]-2-(5-morpholin-4-yl-4-phenyl-1,2,4-triazol-3-yl)acetonitrile]	> 10000 µM	–
COc1ccc2nc3oc(C(=O)NCc4cccs4)cc3cc2c1 [6-methoxy-N-(2-thenyl)furo[2,3-b]quinoline-2-carboxamide]	13.9 µM	–
CCCc1nnc(NC(=O)CN2CCOCC2)s1 [2-(4-morpholinyl)-N-(5-propyl-1,3,4-thiadiazol-2-yl)acetamide;hydrochloride]	> 10000 µM	–
O=c1c2ccccc2[se]n1-c1ccccc1 [2-Phenyl-benzo[d]isoselenazol-3-one]	–	0.513 µM
COC(=O)c1sc2nc(-c3ccco3)ccc2c1N [3-amino-6-(2-furanyl)-2-thieno[2,3-b]pyridinecarboxylic acid methyl ester]	28.7 µM	–
CCCCNC(=O)c1ccc2nc(-c3ccco3)c(-c3ccco3)nc2c1 [MLS000119995]	–	75.6 µM
Cc1ccc(-n2c(SCC(=O)NCc3ccco3)nnc2-c2cccnc2)c(C)c1 [MLS000058402]	> 10000 µM	–
CCOc1ccc(N2CC(C(=O)OC)CC2=O)cc1 (stereo not drawn) [1-(4-ethoxyphenyl)-5-oxo-3-pyrrolidinecarboxylic acid methyl ester]	> 10000 µM	–
COc1ccc(C2CC(c3cccc(C)c3)n3nc(N)nc3N2)cc1 (stereo not drawn) [5-(4-methoxyphenyl)-7-(3-methylphenyl)-1,5,6,7-tetrahydro-[1,2,4]triazolo[1,5-a]pyrimidin-2-amine]	> 10000 µM	–
